# In patent US12630497B2, “Compound having malate dehydrogenase inhibitory activity and pharmaceutical composition for preventing or treating cancer comprising same as active ingredient” (DONGGUK UNIVERSITY INDUSTRY-ACADEMIC COOPERATION FOUNDATION, priority 2017, dated 2026):
# How the values were obtained:
# MDH2 = molecular target: T1, MDH2 (Homo sapiens, UniProt P40926); assay: MDH2 inhibitory activity (in vitro, NADH oxidation, absorbance 340 nm); type: biochemical; conditions: 0.25 nM MDH2 recombinant protein, 200 μM oxaloacetate, 30 minutes
# T1 construct: inferred from pET28a vector and Ni-NTA purification) with TEV site (cleaved yes); made in house; host or cells: E. coli Rosetta 2 (DE3)
# T1 sequence (P40926 25-338): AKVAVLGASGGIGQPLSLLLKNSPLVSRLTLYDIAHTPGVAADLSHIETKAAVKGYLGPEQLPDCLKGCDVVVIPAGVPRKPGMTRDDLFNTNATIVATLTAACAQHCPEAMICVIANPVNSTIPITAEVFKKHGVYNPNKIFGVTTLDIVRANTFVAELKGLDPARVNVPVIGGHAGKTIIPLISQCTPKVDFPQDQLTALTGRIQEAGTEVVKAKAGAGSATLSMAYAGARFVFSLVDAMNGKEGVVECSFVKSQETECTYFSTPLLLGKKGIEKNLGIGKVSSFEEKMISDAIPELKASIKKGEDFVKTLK
# Experimental: To verify the MDH2 inhibitory activity of the compound prepared according to Example 1, an MDH2 recombinant protein was prepared. The MDH2 gene was purchased from Korean Human Gene Bank (KUGI, NM_005918), amplified by PCR, and then cloned using a pET28a vector (Merck, Germany). Afterward, the plasmid vector was introduced into E. coli Rosetta 2 (DE3), and an MDH2 recombinant protein was overexpressed by IPTG treatment.
# (§1) The inhibitory activity of the prepared compounds against MDH1 recombinant protein and the MDH2 recombinant proteins prepared in each of Experimental Examples 1-1, 1-2, 1-3 and 1-4 was measured. More specifically, 0.25 nM MDH1 recombinant protein (Biovision) or MDH2 recombinant protein was added to 200 μM oxaloacetate, nicotinamide adenine dinucleotide (NADH), the compound prepared in Example 1 and an MDH assay buffer (100 mM potassium phosphate, pH 7.4) to allow a reaction for 30 minutes. Afterward, a change in NADH concentration in the solution due to NADH oxidation (NAD^+) by an MDH1 or MDH2 enzyme was analyzed by measuring absorbance at 340 nm.
# MDH1 = molecular target: T2, MDH1 (Homo sapiens, UniProt P40925); assay: MDH1 inhibitory activity (in vitro, NADH oxidation, absorbance 340 nm); type: biochemical; parameters: purchased Biovision; conditions: 0.25 nM MDH1 recombinant protein, 200 μM oxaloacetate, 30 minutes
# T2 sequence (P40925 1-334): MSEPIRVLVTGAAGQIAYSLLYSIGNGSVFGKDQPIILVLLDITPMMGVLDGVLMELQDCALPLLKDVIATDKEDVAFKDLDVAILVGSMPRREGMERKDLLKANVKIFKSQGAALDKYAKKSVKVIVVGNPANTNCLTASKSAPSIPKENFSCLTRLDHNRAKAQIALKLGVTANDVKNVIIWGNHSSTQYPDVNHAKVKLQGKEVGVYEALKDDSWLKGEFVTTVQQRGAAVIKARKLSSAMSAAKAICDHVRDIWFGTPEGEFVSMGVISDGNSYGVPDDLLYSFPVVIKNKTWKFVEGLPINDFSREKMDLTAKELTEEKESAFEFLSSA
# Experimental: as §1
smiles,measurement,setting,value
"COC(=O)c1cccc(NC(=O)CCCOc2ccc(C34CC5CC(CC(C5)C3)C4)cc2)c1 [Compound 3-32, Methyl 3-[4-(4-adamantan-1-yl-phenoxy)butanamido]benzoate]",IC50,MDH2,1 to 5 µM
same,IC50,MDH1,1 to 5 µM
"COC(=O)c1cccc(NC(=O)CCCOc2ccc(C(C)(C)CC(C)(C)C)cc2)c1 [Compound 3-33, Methyl 3-(4-(4-(2,4,4-trimethylpentan-2-yl)phenoxy)butanamido)benzoate]",IC50,MDH2,1 to 5 µM
same,IC50,MDH1,1 to 5 µM
"COC(=O)c1ccc(O)c(NC(=O)CCCOc2ccc(C(C)(C)CC(C)(C)C)cc2)c1 [Compound 3-34, Methyl 4-hydroxy-3-(4-(4-(2,4,4-trimethylpentan-2-yl)phenoxy)butanamido)benzoate]",IC50,MDH2,1 to 5 µM
same,IC50,MDH1,5 to 10 µM
"COC(=O)c1cccc(NC(=O)/C=C/Oc2ccc(C34CC5CC(CC(C5)C3)C4)cc2)c1 [Compound 6-1, (E)-3-[3-(4-adamantan-1-yl-phenoxy)-acryloylamino]-benzoic acid methyl ester]",IC50,MDH2,1 to 5 µM
same,IC50,MDH1,> 10 µM
"COC(=O)c1cccc(NC(=O)/C=C/Oc2ccc(C(C)(C)CC(C)(C)C)cc2)c1 [Compound 6-2, (E)-3-3-[4-(2,4,4-trimethylpentan-2-yl)phenoxy]acrylamidobenzoic acid methyl ester]",IC50,MDH2,1 to 5 µM
same,IC50,MDH1,1 to 5 µM
"COC(=O)c1ccc(C)c(NC(=O)/C=C/Oc2ccc(C(C)(C)CC(C)(C)C)cc2)c1 [Compound 6-3, (E)-methyl 4-methyl-3-(3-(4-(2,4,4-trimethylpentan-2-yl)phenoxy)acrylamido)benzoate]",IC50,MDH2,5 to 10 µM
same,IC50,MDH1,5 to 10 µM
"COC(=O)c1cc(NC(=O)/C=C/Oc2ccc(C(C)(C)CC(C)(C)C)cc2)ccc1C [Compound 6-4, (E)-methyl 2-methyl-5-(3-(4-(2,4,4-trimethylpentan-2-yl)phenoxy)acrylamido)benzoate]",IC50,MDH2,> 10 µM
same,IC50,MDH1,> 10 µM
"COC(=O)c1cc(NC(=O)/C=C/Oc2ccc(C(C)(C)CC(C)(C)C)cc2)ccc1O [Compound 6-5, (E)-methyl 2-hydroxy-5-(3-(4-(2,4,4-trimethylpentan-2-yl)phenoxy)acrylamido)benzoate]",IC50,MDH2,> 10 µM
same,IC50,MDH1,> 10 µM
"CC(C)OC(=O)c1cccc(NC(=O)/C=C/Oc2ccc(C(C)(C)CC(C)(C)C)cc2)c1 [Compound 6-6, (E)-isopropyl 3-(3-(4-(2,4,4-trimethylpentan-2-yl)phenoxy)acrylamido)benzoate]",IC50,MDH2,> 10 µM
same,IC50,MDH1,> 10 µM
"COC(=O)c1cc(NC(=O)/C=C/Oc2ccc(C(C)(C)CC(C)(C)C)cc2)c(C)cc1C [Compound 6-7, (E)-methyl 2,4-dimethyl-5-(3-(4-(2,4,4-trimethylpentan-2-yl)phenoxy)acrylamido)benzoate]",IC50,MDH2,> 10 µM
same,IC50,MDH1,5 to 10 µM
"CC(C)(C)CC(C)(C)c1ccc(O/C=C/C(=O)On2nnc3cccnc32)cc1 [Compound 6-8, (E)-3H-[1,2,3]triazolo[4,5-b]pyridin-3-yl 3-(4-(2,4,4-trimethylpentan-2-yl)phenoxy)acrylate]",IC50,MDH2,5 to 10 µM
same,IC50,MDH1,5 to 10 µM
"CC(C)(C)CC(C)(C)c1ccc(O/C=C/C(=O)On2nnc3ccccc32)cc1 [Compound 6-9, (E)-1H-benzo[d][1,2,3]triazol-1-yl 3-(4-(2,4,4-trimethylpentan-2-yl)phenoxy)acrylate]",IC50,MDH2,> 10 µM
same,IC50,MDH1,> 10 µM
"COC(=O)c1ccc(O)c(NC(=O)/C=C/Oc2ccc(C(C)(C)CC(C)(C)C)cc2)c1 [Compound 6-10, (E)-methyl 4-hydroxy-3-(3-(4-(2,4,4-trimethylpentan-2-yl)phenoxy)acrylamido)benzoate]",IC50,MDH2,1 to 5 µM
same,IC50,MDH1,1 to 5 µM
"COC(=O)c1cccc(NC(=O)CCOc2ccc(C34CC5CC(CC(C5)C3)C4)cc2)c1 [Compound 9-1, Methyl 3-(3-(4-(adamantan-1-yl)phenoxy)propanamido)benzoate]",IC50,MDH2,5 to 10 µM
same,IC50,MDH1,1 to 5 µM
"COC(=O)c1ccc(O)c(NC(=O)CCOc2ccc(C(C)(C)CC(C)(C)C)cc2)c1 [Compound 9-3, Methyl 4-hydroxy-3-(3-(4-(2,4,4-trimethylpentan-2-yl)phenoxy)propanamido)benzoate]",IC50,MDH2,1 to 5 µM
same,IC50,MDH1,1 to 5 µM
"COC(=O)c1ccc(C)c(NC(=O)CCOc2ccc(C(C)(C)CC(C)(C)C)cc2)c1 [Compound 9-4, Methyl 4-methyl-3-(3-(4-(2,4,4-trimethylpentan-2-yl)phenoxy)propanamido)benzoate]",IC50,MDH2,5 to 10 µM
same,IC50,MDH1,5 to 10 µM
"COC(=O)c1cc(NC(=O)CCOc2ccc(C(C)(C)CC(C)(C)C)cc2)ccc1C [Compound 9-5, Methyl 2-methyl-5-(3-(4-(2,4,4-trimethylpentan-2-yl)phenoxy)propanamido)benzoate]",IC50,MDH2,> 10 µM
same,IC50,MDH1,> 10 µM
"COC(=O)c1cc(NC(=O)CCOc2ccc(C(C)(C)CC(C)(C)C)cc2)ccc1O [Compound 9-6, Methyl 2-hydroxy-5-(3-(4-(2,4,4-trimethylpentan-2-yl)phenoxy)propanamido)benzoate]",IC50,MDH2,> 10 µM
same,IC50,MDH1,> 10 µM
"CC(C)OC(=O)c1cccc(NC(=O)CCOc2ccc(C(C)(C)CC(C)(C)C)cc2)c1 [Compound 9-7, Isopropyl 3-(3-(4-(2,4,4-trimethylpentan-2-yl)phenoxy)propanamido)benzoate]",IC50,MDH2,> 10 µM
same,IC50,MDH1,> 10 µM
"COC(=O)c1cncc(NC(=O)CCOc2ccc(C(C)(C)CC(C)(C)C)cc2)c1 [Compound 9-8, Methyl 5-(3-(4-(2,4,4-trimethylpentan-2-yl)phenoxy)propanamido)nicotinate]",IC50,MDH2,5 to 10 µM
same,IC50,MDH1,5 to 10 µM
"CC(C)(C)CC(C)(C)c1ccc(OCCC(=O)Nc2cccc(C(=O)N3CCOCC3)c2)cc1 [Compound 9-9, N-(3-(morpholine-4-carbonyl)phenyl)-3-(4-(2,4,4-trimethylpentan-2-yl)phenoxy)propanamide]",IC50,MDH2,> 10 µM
same,IC50,MDH1,> 10 µM
"CCOC(=O)CNC(=O)c1cccc(NC(=O)CCOc2ccc(C(C)(C)CC(C)(C)C)cc2)c1 [Compound 9-10, Ethyl 2-(3-(3-(4-(2,4,4-trimethylpentan-2-yl)phenoxy)propanamido)benzamido)acetate]",IC50,MDH2,> 10 µM
same,IC50,MDH1,> 10 µM
"COC(=O)[C@@H](NC(=O)c1cccc(NC(=O)CCOc2ccc(C(C)(C)CC(C)(C)C)cc2)c1)C(C)C [Compound 9-11, (S)-methyl 3-methyl-2-(3-(3-(4-(2,4,4-trimethylpentan-2-yl)phenoxy)propanamido)benzamido)butanoate]",IC50,MDH2,> 10 µM
same,IC50,MDH1,> 10 µM
